Activity calls are given as the source filed them. The rule behind the calls is not given here.
Tests used:
[1] = biological target: Delta-type opioid receptor (Mus musculus, UniProt P32300); experiment: Displacement of [3H]DPDPE from delta opioid receptor in CD1 mouse whole brain minus cerebellum membranes by liquid scintillation counting; format: tissue-based, Membrane
Mu-type opioid receptor = Mu-type opioid receptor (Mus musculus, UniProt P42866); experiment: Displacement of [3H]DAMGO from mu opioid receptor in CD1 mouse whole brain minus cerebellum membranes by liquid scintillation counting; format: tissue-based, Membrane
Mus musculus [2] = organism: Mus musculus; experiment: Selectivity ratio of Ki for delta opioid receptor in CD1 mouse whole brain minus cerebellum membranes to Ki for mu opioid receptor in CD1 mouse whole brain minus cerebellum membranes; format: tissue-based
Mus musculus [3] = experiment: Inhibition of morphine-induced analgesia in CD1 mouse model at 80 mg/kg, ip pretreated 30 mins before 5 mg/kg, sc morphine injection and measured 30 to 120 mins after morphine treatment by tail-flick assay relative to control; format: functional, organism-based
Mus musculus [4] = experiment: Analgesic activity in acute pain CD1 mouse model assessed as withdrawal latency from radiant heat source at 40 to 80 mg/kg, ip by tail-flick assay; format: functional, organism-based
Mus musculus [5] = experiment: Inhibition of morphine-induced analgesia in CD1 mouse model at 40 mg/kg, ip pretreated 30 mins before 5 mg/kg, sc morphine injection and measured 30 to 120 mins after morphine treatment by tail-flick assay relative to control; format: functional, organism-based

Row | SMILES | Ki [1] | Ki (Mu-type opioid receptor) | Ratio Ki (Mus musculus [2]) | inhibition (Mus musculus [3]) | Activity (Mus musculus [4]) | inhibition (Mus musculus [5])
1 | C=CC(C)(O)CC[C@@]1(C)[C@H](C)CC[C@]2(C)[C@@H]1C[C@@H](O)[C@H]1O[C@]12C (stereo partly drawn) | 25 µM | > 50 µM | – | – | – | –
2 | C=CC(C)(O)CC[C@@]1(C)[C@H](C)CC[C@@]2(C)C(C)=CC(=O)C[C@H]12 (stereo partly drawn) | 23.5 µM | 40.5 µM | – | – | – | –
3 | COc1cc(-c2cc(=O)c3c(O)c(OC)c(OC)c(OC)c3o2)ccc1O | 37.5 µM | > 50 µM | – | – | – | –
4 | COc1ccc(-c2cc(=O)c3c(O)c(OC)c(O)cc3o2)cc1OC [EUPATILIN] | 12 µM | 28 µM | 0.43 | – | – | –
5 | COc1ccc(-c2cc(=O)c3c(OC)c(OC)c(OC)c(OC)c3o2)cc1 [TANGERETIN] | 7 µM | 16.3 µM | 0.43 | – | – | –

Second part, led by results:

Row | Ki [1] | Ki (Mu-type opioid receptor) | Ratio Ki (Mus musculus [2]) | SMILES | inhibition (Mus musculus [3]) | Activity (Mus musculus [4]) | inhibition (Mus musculus [5])
6 | > 50 µM | > 50 µM | – | COc1ccc(-c2cc(=O)c3c(O)c(OC)c(OC)c(OC)c3o2)cc1 [GARDENIN B] | – | – | –
7 | 12.5 µM | 18.5 µM | 0.68 | COc1c(OC)c(O)c2c(=O)cc(-c3ccc(O)c(O)c3)oc2c1OC [SIDERITIFLAVONE] | – | – | –
8 | 3.6 µM | 0.83 µM | 4.36 | COc1c(OC)c(O)c2c(=O)cc(-c3ccc(O)cc3)oc2c1OC [XANTHOMICROL] | Active | inactive | inactive
